# Experimental data published in the supplement of paper PMC10307832.
# Legend:
# Test in all cases: relative viability (nuclei count vs DMSO), 5 days (fraction); higher = more cells survive
# [1] = tested on: NCI-H2170
# How it was run: (§1)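 Relative viability is defined as nuclei in treated wells over nuclei in vehicle wells. Duplicate plates were run and medians reported. Lung cancer cell lines in 1536-well plates were dosed by pin tool one day after seeding, with one drug or with a fixed anchor-drug dose plus five library-drug doses (not always all listed) in √10 steps, and nuclei were counted after 5 days.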
# [2] = tested on: NCI-H2228
# How it was run: as §1
# [3] = tested on: LCLC-103H
# How it was run: as §1
# [4] = tested on: LOU-NH91
# How it was run: as §1
# [5] = tested on: NCI-H520
# How it was run: as §1
# [6] = tested on: HCC-366
# How it was run: as §1
# [7] = tested on: RERF-LC-KJ
# How it was run: as §1
# [8] = tested on: NCI-H1755
# How it was run: as §1
# [9] = tested on: SW 1573
# How it was run: as §1
# [10] = tested on: NCI-H838
# How it was run: as §1
# [11] = tested on: NCI-H1651
# How it was run: as §1
# [12] = tested on: HCC-78
# How it was run: as §1
# [13] = tested on: NCI-H1975
# How it was run: as §1
# [14] = tested on: HCC-827
# How it was run: as §1
# [15] = tested on: UMC-11
# How it was run: as §1
# [16] = tested on: NCI-H1993
# How it was run: as §1
# [17] = tested on: SK-MES-1
# How it was run: as §1
# [18] = tested on: PC-3 [JPC-3]
# How it was run: as §1
# [19] = tested on: HARA
# How it was run: as §1
# [20] = tested on: NCI-H1793
# How it was run: as §1
# [21] = tested on: HCC-44
# How it was run: as §1
# [22] = tested on: COR-L 105
# How it was run: as §1
# [23] = tested on: EPLC-272H
# How it was run: as §1
# [24] = tested on: NCI-H1355
# How it was run: as §1
smiles,measurement,setting,value
Nc1cccc2c1CN(C1CCC(=O)NC1=O)C2=O (centres undefined) [Lenalidomide] + CC(=O)c1c(C)c2cnc(Nc3ccc(N4CCNCC4)cn3)nc2n(C2CCCC2)c1=O [Palbociclib] (partner 0.5 µM),relative viability,[1]; first compound 0.253 µM,0.436
same,relative viability,[1]; first compound 0.8 µM,0.374
same,relative viability,[1]; first compound 2.53 µM,0.433
same,relative viability,[1]; first compound 8 µM,0.314
same,relative viability,[2]; first compound 0.253 µM,1.05
same,relative viability,[2]; first compound 0.8 µM,0.36
same,relative viability,[2]; first compound 2.53 µM,1.04
same,relative viability,[2]; first compound 8 µM,0.657
same,relative viability,[3]; first compound 0.253 µM,0.484
same,relative viability,[3]; first compound 0.8 µM,0.459
same,relative viability,[3]; first compound 2.53 µM,0.464
same,relative viability,[3]; first compound 8 µM,0.47
same,relative viability,[4]; first compound 0.253 µM,0.564
same,relative viability,[4]; first compound 0.8 µM,0.515
same,relative viability,[4]; first compound 2.53 µM,0.487
same,relative viability,[4]; first compound 8 µM,0.429
same,relative viability,[5]; first compound 0.253 µM,0.225
same,relative viability,[5]; first compound 0.8 µM,0.216
same,relative viability,[5]; first compound 2.53 µM,0.236
same,relative viability,[5]; first compound 8 µM,0.2
same,relative viability,[6]; first compound 0.253 µM,0.437
same,relative viability,[6]; first compound 0.8 µM,0.389
same,relative viability,[6]; first compound 2.53 µM,0.505
same,relative viability,[6]; first compound 8 µM,0.353
same,relative viability,[7]; first compound 0.253 µM,1.09
same,relative viability,[7]; first compound 0.8 µM,1.06
same,relative viability,[7]; first compound 2.53 µM,1.21
same,relative viability,[7]; first compound 8 µM,1.03
same,relative viability,[8]; first compound 0.253 µM,0.451
same,relative viability,[8]; first compound 0.8 µM,0.434
same,relative viability,[8]; first compound 2.53 µM,0.429
same,relative viability,[8]; first compound 8 µM,0.441
same,relative viability,[9]; first compound 0.253 µM,0.239
same,relative viability,[9]; first compound 0.8 µM,0.384
same,relative viability,[9]; first compound 2.53 µM,0.399
same,relative viability,[9]; first compound 8 µM,0.421
same,relative viability,[10]; first compound 0.253 µM,0.172
same,relative viability,[10]; first compound 0.8 µM,0.19
same,relative viability,[10]; first compound 2.53 µM,0.256
same,relative viability,[10]; first compound 8 µM,0.18
same,relative viability,[11]; first compound 0.253 µM,0.504
same,relative viability,[11]; first compound 0.8 µM,0.485
same,relative viability,[11]; first compound 2.53 µM,0.526
same,relative viability,[11]; first compound 8 µM,0.489
same,relative viability,[12]; first compound 0.253 µM,0.48
same,relative viability,[12]; first compound 0.8 µM,0.416
same,relative viability,[12]; first compound 2.53 µM,0.463
same,relative viability,[12]; first compound 8 µM,0.47
same,relative viability,[13]; first compound 0.253 µM,0.591
same,relative viability,[13]; first compound 0.8 µM,0.312
same,relative viability,[13]; first compound 2.53 µM,0.711
same,relative viability,[13]; first compound 8 µM,0.399
same,relative viability,[14]; first compound 0.253 µM,0.506
same,relative viability,[14]; first compound 0.8 µM,0.432
same,relative viability,[14]; first compound 2.53 µM,0.538
same,relative viability,[14]; first compound 8 µM,0.489
same,relative viability,[15]; first compound 0.253 µM,0.328
same,relative viability,[15]; first compound 0.8 µM,0.363
same,relative viability,[15]; first compound 2.53 µM,0.308
same,relative viability,[15]; first compound 8 µM,0.285
same,relative viability,[16]; first compound 0.253 µM,0.789
same,relative viability,[16]; first compound 0.8 µM,0.659
same,relative viability,[16]; first compound 2.53 µM,0.729
same,relative viability,[16]; first compound 8 µM,0.455
same,relative viability,[17]; first compound 0.253 µM,0.317
same,relative viability,[17]; first compound 0.8 µM,0.312
same,relative viability,[17]; first compound 2.53 µM,0.278
same,relative viability,[17]; first compound 8 µM,0.156
same,relative viability,[18]; first compound 0.253 µM,0.545
same,relative viability,[18]; first compound 0.8 µM,0.511
same,relative viability,[18]; first compound 2.53 µM,0.548
same,relative viability,[18]; first compound 8 µM,0.57
same,relative viability,[19]; first compound 0.253 µM,0.253
same,relative viability,[19]; first compound 2.53 µM,0.293
same,relative viability,[19]; first compound 8 µM,0.253
same,relative viability,[20]; first compound 0.253 µM,0.363
same,relative viability,[20]; first compound 2.53 µM,0.296
same,relative viability,[20]; first compound 8 µM,0.256
same,relative viability,[21]; first compound 0.253 µM,0.965
same,relative viability,[21]; first compound 0.8 µM,0.785
same,relative viability,[21]; first compound 2.53 µM,0.972
same,relative viability,[21]; first compound 8 µM,0.907
same,relative viability,[22]; first compound 0.253 µM,0.394
same,relative viability,[22]; first compound 0.8 µM,0.412
same,relative viability,[22]; first compound 2.53 µM,0.409
same,relative viability,[22]; first compound 8 µM,0.413
same,relative viability,[23]; first compound 0.253 µM,0.34
same,relative viability,[23]; first compound 0.8 µM,0.383
same,relative viability,[23]; first compound 2.53 µM,0.333
same,relative viability,[23]; first compound 8 µM,0.322
same,relative viability,[24]; first compound 0.253 µM,0.397
same,relative viability,[24]; first compound 0.8 µM,0.372
same,relative viability,[24]; first compound 2.53 µM,0.413
same,relative viability,[24]; first compound 8 µM,0.286
